Measured values from PubChem BioAssay (NCI).
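Exposure lasted 48 hours, with cells grown in 96-well plates and compounds tested at five concentrations. GI50 marks 50% less growth. At the TGI there is no net growth.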

Columns and labels:
Assay in all cases: NCI-60 cell line screen, 48 h
[1] = tested on: CAKI-1 renal
[2] = tested on: SK-MEL-5 melanoma
[3] = tested on: SN12C renal
[4] = tested on: SK-MEL-2 melanoma
[5] = tested on: BT-549 breast
[6] = tested on: HCT-15 colon
[7] = tested on: SNB-19 CNS
[8] = tested on: U251 CNS
[9] = tested on: HCT-116 colon
[10] = tested on: UACC-62 melanoma
[11] = tested on: EKVX NSCLC
[12] = tested on: SNB-75 CNS
[13] = tested on: MDA-MB-435
[14] = tested on: HL-60(TB) leukemia
[15] = tested on: K-562 leukemia
[16] = tested on: MALME-3M melanoma
[17] = tested on: SF-539 CNS
[18] = tested on: LOX IMVI melanoma
[19] = tested on: HT29 colon
[20] = tested on: COLO 205 colon
[21] = tested on: OVCAR-4 ovarian
[22] = tested on: SW-620 colon
[23] = tested on: SK-MEL-28 melanoma
[24] = tested on: A549 NSCLC
[25] = tested on: M14 melanoma
[26] = tested on: HCC-2998 colon
[27] = tested on: NCI/ADR-RES ovarian
[28] = tested on: OVCAR-8 ovarian
[29] = tested on: RXF 393 renal
[30] = tested on: ACHN renal
[31] = tested on: T-47D breast
[32] = tested on: OVCAR-3 ovarian
[33] = tested on: SF-295 CNS
[34] = tested on: MCF7 breast
[35] = tested on: NCI-H522 lung
[36] = tested on: MOLT-4 leukemia
[37] = tested on: UO-31 renal
[38] = tested on: SK-OV-3 ovarian
[39] = tested on: HS 578T breast
[40] = tested on: PC-3 prostate
[41] = tested on: KM12 colon
[42] = tested on: TK-10 renal
[43] = tested on: NCI-H460 lung
[44] = tested on: NCI-H226 lung
[45] = tested on: IGROV1 ovarian
[46] = tested on: HOP-62 NSCLC
[47] = tested on: 786-0 renal
[48] = tested on: SF-268 CNS
[49] = tested on: HOP-92 NSCLC
[50] = tested on: DU-145 prostate
[51] = tested on: OVCAR-5 ovarian
[52] = tested on: UACC-257 melanoma
[53] = tested on: NCI-H23 lung
[54] = tested on: CCRF-CEM leukemia
[55] = tested on: MDA-MB-231 breast
[56] = tested on: SR leukemia
[57] = tested on: RPMI-8226 leukemia

C#CCn1cc(C=C2C(=O)NC(=S)NC2=O)c2cc(Cl)ccc21
GI50 [1]: 1840 nM | TGI [1]: 4060 nM | GI50 [2]: 1810 nM | TGI [2]: 3310 nM | GI50 [3]: 2050 nM | TGI [3]: 4490 nM | GI50 [4]: 2410 nM | TGI [4]: 5910 nM | GI50 [5]: 1910 nM | TGI [5]: 3890 nM | GI50 [6]: 1980 nM | TGI [6]: 4640 nM | GI50 [7]: 1720 nM | TGI [7]: 3160 nM | GI50 [8]: 1870 nM | TGI [8]: 3900 nM | GI50 [9]: 1860 nM | TGI [9]: 3600 nM | GI50 [10]: 1850 nM | TGI [10]: 3910 nM | GI50 [11]: 2140 nM | TGI [11]: 5920 nM | GI50 [12]: 1370 nM | TGI [12]: 3670 nM | GI50 [13]: 1920 nM | TGI [13]: 4360 nM | GI50 [14]: 2240 nM | TGI [14]: 6450 nM | GI50 [15]: 2850 nM | TGI [15]: > 100000 nM | GI50 [16]: 1980 nM | TGI [16]: 4950 nM | GI50 [17]: 1820 nM | TGI [17]: 3490 nM | GI50 [18]: 1650 nM | TGI [18]: 3110 nM | GI50 [19]: 2210 nM | TGI [19]: 4680 nM | GI50 [20]: 2220 nM | TGI [20]: 5280 nM | GI50 [21]: 2280 nM | TGI [21]: 7010 nM | GI50 [22]: 1790 nM | TGI [22]: 3450 nM | GI50 [23]: 2330 nM | TGI [23]: 5560 nM | GI50 [24]: 3630 nM | TGI [24]: 16600 nM | GI50 [25]: 2000 nM | TGI [25]: 4760 nM | GI50 [26]: 1750 nM | TGI [26]: 3390 nM | GI50 [27]: 3090 nM | TGI [27]: 12800 nM | GI50 [28]: 2720 nM | TGI [28]: 7440 nM | GI50 [29]: 1840 nM | TGI [29]: 3650 nM | GI50 [30]: 1970 nM | TGI [30]: 4070 nM | GI50 [31]: 3040 nM | TGI [31]: 14100 nM | GI50 [32]: 1640 nM | TGI [32]: 3000 nM | GI50 [33]: 1930 nM | TGI [33]: 4120 nM | GI50 [34]: 1670 nM | TGI [34]: 3460 nM | GI50 [35]: 2120 nM | TGI [35]: 5450 nM | GI50 [36]: 2440 nM | TGI [36]: 6380 nM | GI50 [37]: 1700 nM | TGI [37]: 3440 nM | GI50 [38]: 2870 nM | TGI [38]: 14700 nM | GI50 [39]: 2340 nM | TGI [39]: 7600 nM | GI50 [40]: 2570 nM | TGI [40]: 6890 nM | GI50 [41]: 1620 nM | TGI [41]: 3330 nM | GI50 [42]: 2360 nM | TGI [42]: 5950 nM | GI50 [43]: 2290 nM | TGI [43]: 5120 nM | GI50 [44]: 2820 nM | TGI [44]: 8470 nM | GI50 [45]: 2130 nM | TGI [45]: 5100 nM | GI50 [46]: 2640 nM | TGI [46]: 8980 nM | GI50 [47]: 2170 nM | TGI [47]: 5040 nM | GI50 [48]: 2120 nM | TGI [48]: 5410 nM | GI50 [49]: 1920 nM | TGI [49]: 5260 nM | GI50 [50]: 1720 nM | TGI [50]: 3220 nM | GI50 [51]: 1960 nM | TGI [51]: 4120 nM | GI50 [52]: 2880 nM | TGI [52]: 8630 nM | GI50 [53]: 2180 nM | TGI [53]: 5260 nM | GI50 [54]: 2320 nM | TGI [54]: 6450 nM | GI50 [55]: 1810 nM | TGI [55]: 3620 nM

Cc1ccc(NCCNCC(O)CO)c2c(=O)c3ccccc3sc12 (configuration not stated)
GI50 [1]: 1640 nM | TGI [1]: 3380 nM | GI50 [2]: 1570 nM | TGI [2]: 2930 nM | GI50 [3]: 1320 nM | TGI [3]: 3190 nM | GI50 [4]: 1770 nM | TGI [4]: 3490 nM | GI50 [5]: 2470 nM | TGI [5]: 10500 nM | GI50 [6]: 1290 nM | TGI [6]: 2720 nM | GI50 [7]: 1520 nM | TGI [7]: 3230 nM | GI50 [8]: 1670 nM | TGI [8]: 3510 nM | GI50 [9]: 1050 nM | TGI [9]: 2300 nM | GI50 [10]: 1540 nM | TGI [10]: 3080 nM | GI50 [11]: 1830 nM | TGI [11]: 3770 nM | GI50 [12]: 2070 nM | TGI [12]: 11500 nM | GI50 [13]: 1520 nM | TGI [13]: 3100 nM | GI50 [14]: 1620 nM | TGI [14]: 3700 nM | GI50 [56]: 1550 nM | TGI [56]: 3970 nM | GI50 [15]: 1520 nM | TGI [15]: 3260 nM | GI50 [16]: 1370 nM | TGI [16]: 2760 nM | GI50 [17]: 1670 nM | TGI [17]: 3190 nM | GI50 [18]: 1430 nM | TGI [18]: 2840 nM | GI50 [19]: 1410 nM | TGI [19]: 3040 nM | GI50 [20]: 1320 nM | TGI [20]: 3020 nM | GI50 [21]: 1860 nM | TGI [21]: 4680 nM | GI50 [22]: 1040 nM | TGI [22]: 2570 nM | GI50 [23]: 1690 nM | TGI [23]: 3300 nM | GI50 [24]: 849 nM | TGI [24]: 2380 nM | GI50 [25]: 1550 nM | TGI [25]: 3130 nM | GI50 [26]: 1480 nM | TGI [26]: 3050 nM | GI50 [27]: 1670 nM | TGI [27]: 3750 nM | GI50 [28]: 1920 nM | TGI [28]: 4770 nM | GI50 [29]: 1430 nM | TGI [29]: 2890 nM | GI50 [30]: 1290 nM | TGI [30]: 3070 nM | GI50 [31]: 1790 nM | TGI [31]: 4080 nM | GI50 [32]: 2150 nM | TGI [32]: 4700 nM | GI50 [33]: 1520 nM | TGI [33]: 3090 nM | GI50 [34]: 1190 nM | TGI [34]: 2650 nM | GI50 [35]: 1910 nM | TGI [35]: 4090 nM | GI50 [37]: 1120 nM | TGI [37]: 2480 nM | GI50 [38]: 1650 nM | TGI [38]: 3860 nM | GI50 [39]: 2190 nM | TGI [39]: 5900 nM | GI50 [40]: 1580 nM | TGI [40]: 3220 nM | GI50 [41]: 1740 nM | TGI [41]: 3600 nM | GI50 [42]: 1510 nM | TGI [42]: 3100 nM | GI50 [43]: 776 nM | TGI [43]: 2430 nM | GI50 [44]: 1650 nM | TGI [44]: 3440 nM | GI50 [45]: 1610 nM | TGI [45]: 3430 nM | GI50 [46]: 1350 nM | TGI [46]: 2950 nM | GI50 [47]: 1370 nM | TGI [47]: 2790 nM | GI50 [57]: 2480 nM | TGI [57]: 6830 nM | GI50 [48]: 1810 nM | TGI [48]: 3960 nM | GI50 [49]: 1980 nM | TGI [49]: 7810 nM | GI50 [50]: 1280 nM | TGI [50]: 2620 nM | GI50 [51]: 1740 nM | TGI [51]: 3670 nM | GI50 [52]: 1870 nM | TGI [52]: 3580 nM | GI50 [53]: 1730 nM | TGI [53]: 3540 nM | GI50 [54]: 1860 nM | TGI [54]: 4550 nM | GI50 [55]: 1370 nM | TGI [55]: 3000 nM
